Reference: PubChem BioAssay AID179 (DTP/NCI, 2004)
pEC50, pIC50: −log10 of the molar value. Calls of active or inactive are those of the source.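 How the source made its calls: active means compounds giving half or more protection of infected cells from virus-caused growth loss, again on retest; inactive means the rest.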 Where a SMILES comes first, the peptide text is derived from it. [ ]: non-standard residue; d: D form. Ac5c = NC1(C(=O)O)CCCC1

Test system: CEM cells HIV-1 protection, formazan growth assay
Test: NCI AIDS Antiviral Assay
Conditions: for pIC50: measured here: growth of uninfected CEM cells
Method in brief: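 Human CEM cells, uninfected and HIV-1-infected, exposed to five drug concentrations; growth measured by soluble formazan assay and scored as percent protection from infection, with protecting compounds retested.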

| Structure (SMILES) | outcome | pEC50 | pIC50 |
| --- | --- | --- | --- |
| NCCOCCOCC(=O)O | inactive | – | – |
| CO[C@]12CCC(=O)N1C=Cc1c2[nH]c2ccccc12 | inactive | – | – |
| COc1ccc(-c2onc3ccc(Br)cc23)cc1 | – | < 4.63 | < 4.63 |
| COc1cccc(OC)c1C1ON=C(c2ccccc2)N1C12CC3CC(CC(C3)C1)C2 (stereo unspecified) | – | < 3.70 | 3.85 |
| CCC1=CCN(c2cc(C)ccn2)OC1c1ccccc1 (stereo unspecified) | – | < 4.45 | < 4.45 |
| CCCCCC=C(c1ccc(OC)c(S(=O)(=O)N(C)C)c1)c1ccc(OC)c(S(=O)(=O)N(C)C)c1 | – | < 4.45 | < 4.45 |
| O=C(C=Nc1ccccc1C(=O)[O-])c1cccs1.O=C(C=Nc1ccccc1C(=O)[O-])c1cccs1.[Cu+2] | inactive | – | – |
| O=C1c2ccccc2C(=O)c2sc(Nc3cc(Cl)ccc3Cl)nc21 | – | < 3.70 | 4.98 |
| Cc1cc2c(c3ncccc13)OCN(Cc1ccc(Cl)c(Cl)c1)C2 | – | < 4.00 | 5.98 |
| COc1cc(C(=O)NO)ccc1O | – | < 2.07 | 3.35 |
| COc1cccc(CCn2c(N)c(-c3ccccc3)c3ccc([N+](=O)[O-])cc3c2=O)c1 | – | < 3.70 | 5.13 |
| Cn1c(=O)c2c(=O)c(=O)[nH][nH]c2n(C)c1=O | – | < 3.70 | < 3.70 |
| O=C(NCCc1c(-c2ccccc2)[nH]c2ccccc12)C(F)(F)F | – | < 3.70 | 4.46 |
| CC(=O)O[C@H]1CCC2[C@@H]3CCC4=C(O)c5nocc5C[C@]4(C)C3CC[C@@]21C (stereo partly specified) | – | < 4.15 | – |
| CCNC(=O)C(O)C1(O)CCC2[C@@H]3CCC4=CC(=O)C=C[C@]4(C)C3[C@@H](O)C[C@@]21C (stereo partly specified) | inactive | – | – |
| CN1CCCc2cc(/C=C\c3ccnc4ccccc34)ccc21 | – | 7.20 | 5.36 |
| COC(=O)C1=C(O)C(C(=O)OC)C2CC(=O)CC1C2(C)C (stereo unspecified) | – | < 3.70 | < 3.70 |
| CC(CCC(C)OS(=O)(=O)c1ccc(F)cc1)OS(=O)(=O)c1ccc(F)cc1 (stereo unspecified) | inactive | – | – |
| COc1ccc(OC(C)=O)c2c1CCC=CC2=O | inactive | – | – |
| C=CCN=C1N=C(C)C(C(=O)OCC)S1 (stereo unspecified) | – | < 4.52 | 4.75 |

| Structure (SMILES) | outcome | pEC50 | pIC50 |
| --- | --- | --- | --- |
| O=[N+]([O-])c1cc(Cl)cc2cc(Cl)cnc12 | – | < 3.70 | < 3.70 |
| Cc1cn(C2CC(O[Si](C)(C)C(C)(C)C)C(CNC(=O)N(O)C3CC(n4cc(C)c(=O)[nH]c4=O)OC3CO[Si](C)(C)C(C)(C)C)O2)c(=O)[nH]c1=O (stereo unspecified) | – | < 3.70 | 5.68 |
| Cn1cnc2c(C#N)c(C#N)nn2c1=O | – | < 3.70 | < 3.70 |
| CCOC(=O)/C(=C\c1ccc(N(C)C)cc1)C(C)=O | – | < 3.30 | 3.79 |
| Nc1ccc(N=Nc2ccc(CCc3ccc(N=Nc4ccc(N)c5cc(S(=O)(=O)O)ccc45)cc3S(=O)(=O)O)c(S(=O)(=O)O)c2)c2ccc(S(=O)(=O)O)cc12 | – | < 3.84 | 4.27 |
| Cc1cc(O)c2c(=O)c(=O)c2c1 | – | < 2.81 | 3.56 |
| c1ccc2c(c1)CCCN1CCc3ccccc3C21 (stereo unspecified) | – | < 3.70 | 4.29 |
| Cc1ccc(S(=O)(=O)C2=c3ncccc3=C3C(=O)c4ccccc4C(=O)C32)cc1 (stereo unspecified) | inactive | – | – |
| COC(=O)c1ccccc1COC(=O)c1cc(C(=CCC[C@H]2CC[C@@]3(C)[C@@H](CC[C@@H]4[C@@H]3CC[C@]3(C)[C@@H](C(C)CCCC(C)C)CC[C@@H]43)C2)c2cc(Cl)c(OCc3ccccc3C(=O)OC)c(C(=O)OCc3ccccc3C(=O)OC)c2)cc(Cl)c1OCc1ccccc1C(=O)OC (stereo partly specified) | – | < 3.70 | < 3.70 |
| O=C1OC(c2ccccc2)=C2CCC3CCCCN1C23 (stereo unspecified) | – | < 3.88 | < 3.88 |
| CCOCC(Br)C(OCC)OCC (stereo unspecified) | inactive | – | – |
| CC(=O)ON(OC(C)=O)c1ccc(C)cc1 | – | < 3.70 | < 3.70 |
| CCOC(=O)c1cc(I)c(-c2cc(C)no2)n1C | – | < 3.70 | 4.43 |
| Cc1ccc(N2C(=O)/C(=C/c3ccc(N(CCC#N)CCC#N)cc3)N=C2COc2ccc(Cl)cc2Cl)cc1 | inactive | – | – |
| O=c1oc2ccccc2c(O)c1C(c1ccc(/C=C/c2ccccc2)cc1)c1c(O)c2ccccc2oc1=O | – | < 3.70 | 4.82 |
| O=C(Nc1ccc2c(O)c(N=Nc3ccc4c(O)cc(S(=O)(=O)O)cc4c3)c(S(=O)(=O)O)cc2c1)c1ccccc1 | – | 4.73 | 4.30 |
| C(=C\C(SCc1ccccc1)SCc1ccccc1)/c1ccccc1 | – | < 3.70 | < 3.70 |
| CC(=NC1C2CC3CC(C2)CC1C3)c1ccc(N=NC2C(=O)NN=C2C)cc1 (stereo unspecified) | – | < 5.00 | < 5.00 |
| O=C(O)c1cc(Cc2cc(C(c3ccc(O)c(C(=O)O)c3)c3ccc(O)c(C(=O)O)c3)cc(C(=O)O)c2O)ccc1O | – | 4.02 | 3.71 |
| C[C@]12Cc3cn[nH]c3C(=O)C1CC[C@@H]1C2CC[C@@]2(C)C1CC[C@]2(C)O (stereo partly specified) | – | < 4.42 | < 4.42 |

| Structure (SMILES) | outcome | pEC50 | pIC50 |
| --- | --- | --- | --- |
| Oc1ccc(/C=N/c2nccs2)c(O)c1 | – | < 3.70 | 3.86 |
| COC(=O)C1CN=CN1CCc1ccccc1 (stereo unspecified) | – | < 3.70 | < 3.70 |
| CCOC(C(=O)N(C)CCN(C)CCc1ccccc1)(c1ccccc1)c1ccccc1 | – | < 3.70 | 4.43 |
| c1ccc2c(c1)nnn1c3ncccc3nc21 | – | < 4.23 | 4.63 |
| Cc1c([N+](=O)[O-])ccc2c(NCCCN(C)C)ccnc12 | – | < 3.70 | 4.72 |
| O=[As](O)(O)c1ccc(Nc2nc(Cl)nc(Cl)n2)cc1 | – | < 3.70 | < 3.70 |
| O=C1CS/C(=N/N=C/c2nc3ccccc3c(=O)n2-c2ccc(Cl)cc2)N1c1ccccc1 | – | < 4.42 | < 4.42 |
| CC1(C)Oc2ccc3c(=O)c(-c4ccccc4)c(-c4ccccc4)oc3c2C1C(=O)O (stereo unspecified) | – | < 3.70 | 4.14 |
| CC(C)=CCC[C@@H](C)C1=C(Nc2ccccc2)C(O)=C(C)C(=O)C1=O | – | < 3.70 | 5.52 |
| FC(F)(Oc1ccccc1)c1nc2ccccc2o1 | – | < 3.70 | 4.19 |
| O=C(OC1C2OC(=O)c3cc(O)c(O)c(O)c3Oc3cc4c(c(O)c3O)-c3c(cc(O)c(O)c3O)C(=O)OCC3OC(O)C(OC(=O)c5cc(O)c(O)c(O)c5Oc5cc6c(c(O)c5O)-c5c(cc(O)c(O)c5O)C(=O)OC1C(COC6=O)OC2O)C(OC(=O)c1cc(O)c(O)c(O)c1)C3OC4=O)c1cc(O)c(O)c(O)c1 (stereo unspecified) | – | < 4.16 | 4.46 |
| Cc1c(C)[n+](=O)c2ccc(/C=[N+](/[O-])CCO)cc2n1[O-] | inactive | – | – |
| CCCCCCCCCC/C=C/CC(=O)SCCNC(=O)CCNC(=O)[C@@H](O)C(C)(C)COP(=O)(O)OP(=O)(O)OCC1OC(n2cnc3c(N)ncnc32)C(O)C1OP(=O)(O)O (stereo partly specified) | inactive | – | – |
| COC(=O)C1(NC(=O)C(C)NC(=O)C(CCCCN)NC(=O)C(CC(C)C)NC(C)=O)CCCC1 (stereo unspecified) (Ac-LKA[Ac5c]-OMe; configuration not given here) | – | < 3.70 | < 3.70 |
| O=C(NCCCCCCCCNC(=O)c1cnc2ccccc2n1)c1cnc2ccccc2n1 | – | < 3.40 | 4.25 |
| CNC(=S)/C(C#N)=C(\N)N1CCN(C)CC1 | – | < 3.70 | < 3.70 |
| CC(=O)OCC1OC(Nc2[nH]c(=O)n(C)c(=O)c2N=O)C(OC(C)=O)C(OC(C)=O)C1OC(C)=O (stereo unspecified) | – | < 3.70 | < 3.70 |
| CN1NC(c2ccccc2)=C(C#N)C(=O)CC1c1ccccc1 (stereo unspecified) | – | < 3.70 | 4.03 |
| O=CC12CCCN1CCC2 | – | < 3.70 | < 3.70 |
